Results published in patent US12195457B2, “Aromatic ring derivative as immunoregulation and preparation method and application of aromatic ring derivative” (SHANGHAI JEMINCARE PHARMACEUTICALS CO., LTD, priority 2018, dated 2025).
pIC50: −log10 of the molar value.

Legend:
[1] = In vivo pharmacokinetics in rats, intravenous injection and oral administration; parameters: species or system Sprague Dawley rats; details: rat; for AUC(0-inf) / clearance / half-life / Cmax: male, Sprague-Dawley, plasma
Protocol: In this experimental embodiment, in vivo pharmacokinetic evaluation was performed in rats by intravenous injection and oral administration.
Experimental methods and conditions: male Sprague Dawley rats were given the test compounds 1 mg/kg (solvent 5% DMSO/15% Solutol/80% Saline) by intravenous injection and 1 mg/kg (solvent 0.5% MC) by oral gavage respectively. 5 min, 15 min, 30 min, 1 hr, 2 hr, 4 hr, 6 hr, 8 hr, 24 hr after administration, blood was collected from submandibular vein, each sample was collected about 0.20 mL, and heparin sodium was used for anti coagulation. After collection, the sample was placed on ice, and the blood was centrifuged to be measured within one hour. Blood drug concentration in plasma was detected by liquid chromatography tandem mass spectrometry (LC/MS/MS), and the pharmacokinetic parameters were calculated by Phoenix WinNonlin software.

[2] = system: experimental autoimmune encephalomyelitis (EAE); assay: Experimental autoimmune encephalomyelitis (EAE) in mice; assay type: in vivo, C57BL/6J mice; details: days 5-37
Protocol: Female C57BL/6J mice were immunized with MOG35-55 antigen emulsion. 2 hours after immunization, each animal was injected with 200 ng/100 μL PTX solution intraperitoneally. After 24 hours (the second day), the same dose of PTX solution was injected once again. On the fifth day, the animals in each group began to administer the drug, and each group was given the drug by gavage, with a dosage of 10 mL/kg, once a day for 33 consecutive days (days 5-37). During the experiment, general clinical observation was carried out twice a day, and the weight and EAE clinical scores were measured once a day after administration. The score was divided into five grades: (0. normal mice, no obvious disease; 1. tail weakness or hind limb weakness; 2. tail weakness and hind limb weakness; 3. hemiplegia of hind limbs; 4. complete paralysis of hind limbs; 5, died of EAE or euthanasia in near-death state).

[3] = system: peripheral blood lymphocyte (PBL) count; assay: Peripheral lymphocyte lowering (PLL) in mice; assay type: in vivo, C57BL/6j mice; details: Mus musculus, oral, 5 hours after administration, read-out: IC50 of peripheral blood lymphocyte (PBL) count decrease
Protocol: (§1) Mice: SPF female C57BL/6j mice, weighing 19-22 g. Rats: Male Sprague-Dawley rats, weighing 200-220 g. Feeding environment: the temperature was 23±2° C., the relative humidity was 40-70%, and the lighting time was at 7:00 in the morning to 7:00 in the evening; animals were freely fed with common feed and sterilized drinking water. All animal experiments were approved by the animal ethics committee; all animal experiments were carried out in accordance with the relevant SOP requirements of animal room. Animals were reared adaptively for one week before the experiment.
(§2) Animals were administered orally with a volume of 10 mL/kg. The vehicle for administration was 0.5% DMSO+0.5% MC. Animals were anesthetized with isoflurane 5 hours after administration, and 100-150 μL of peripheral blood was collected through the eye socket in EP tubes, placed on ice. The lymphocyte count of blood analysis was detected by XT-2000i automated hematology analyzer within 30 minutes. Another 20 μL of whole blood was diluted with 40 μL of DDW, and snap frozen in liquid nitrogen, the concentration of the compounds in blood was detected.

[4] = system: peripheral blood lymphocyte (PBL) count; assay: Peripheral lymphocyte lowering (PLL) in rats; assay type: in vivo, Sprague-Dawley rats; details: Rattus norvegicus, oral, 5 hours after administration, read-out: IC50 of peripheral blood lymphocyte (PBL) count decrease
Protocol: as §1, §2

[5] = cited from earlier work
DNBS-induced colitis = assay: Rat colitis model induced by DNBS; assay type: in vivo, Wistar rats; details: DNBS rats
From the text: The Wistar rat ulcerative enteritis model induced by DNBS (2, 4-dinitrobenzenesulfonic acid) is also one of the commonly used models for development of enteritis drugs. DNBS combines with intestinal tissue protein to form complete antigen, which increases vascular permeability, activates inflammatory transmitters, increases fibrinolytic activity, and makes the body produce immune response against intestinal mucosa, resulting in persistent ulcer and inflammation of intestinal mucosa in rats.
The experimental animals were Wistar rats, male, 5-6 weeks old, 140-160 g. The animals were kept in SPF room with a room temperature of 20-26° C., a humidity of 40-70%, fluorescent lamp lighting, 12 hours of lighting (08:00-20:00) and 12 hours of no lighting, with 2-5 animals in each cage (same administration group). […]
Drug treatment: 4 hours after modeling, animals were given with different concentrations of drugs or 0.5% methylcellulose by gavage, 10 mL/kg, once a day for 7 consecutive days. […] After administration, the animals were euthanized, colon tissues were collected, colon length, colon weight and ulcer area were measured, and colon injury in rats was evaluated macroscopically, so as to evaluate the therapeutic effect of the tested drugs on DNBS-induced inflammatory colitis model in rats.

[6] = intravenous administration 1 mg/kg

Row | AUC(0-inf) [1, 6] | clearance [1, 6] | half-life [1, 6] | AUC(0-inf) ([1]; oral administration 1 mg/kg) | Cmax ([1]; oral administration 1 mg/kg) | half-life ([1]; oral administration 1 mg/kg) | F ([1]; oral administration 1 mg/kg) | pIC50 [3] | pIC50 [4] | Compound | disease symptoms (EAE clinical score) ([2]; 1 mg/kg by gavage once a day) | half-life in human body [5] | disease symptoms (EAE clinical score) ([2]; 5 mg/kg by gavage once a day) | area of colonic ulcer (DNBS-induced colitis; 0.2 mg/kg by gavage once a day for 7 days) | area of colonic ulcer (DNBS-induced colitis; 1 mg/kg by gavage once a day for 7 days)
1 | 4750 ng·h/mL | 3.5 mL/min/kg | 168 min | 1190 ng·h/mL | 184 ng/mL | 234 min | 17.4% | 7.73 | 8.39 | O=C(O)CCc1[nH]c2ccc(OCc3ccc(C4CCCC4)c(C(F)(F)F)c3)cc2c1Cl [Compound 13] | significantly reduce | – | – | – | –
2 | – | – | – | – | – | – | – | – | – | CCCCCCCCc1ccc(CCC(N)(CO)CO)cc1 [FTY720, Fingolimod] | – | 6 to 9 days | – | – | –
3 | 4140 ng·h/mL | 4.17 mL/min/kg | 84 min | 649 ng·h/mL | 162 ng/mL | 174 min | 13.3% | 7.61 | 8.28 | Cc1c(CCC(=O)O)[nH]c2ccc(OCc3ccc(C4CCCC4)c(C(F)(F)F)c3)cc12 [Compound 16] | significantly reduce | – | significantly reduce | significantly reduce | significantly reduce
